Laboratory results: US20220395575A1, “COMBINATION THERAPY WITH PROTEIN KINASE B ACTIVATION INHIBITOR TO TREAT CANCER” (H. LEE MOFFITT CANCER CENTER AND RESEARCH INSTITUTE, INC., priority 2019, published 2022)

Legend:
Format in all cases: cell-based
Conditions in all cases: in combination with Akt activation inhibitor TCN-P
[1] = tested on: THP1 human leukemic cells; test: viability of THP1 human leukemic cells, combination with TCN-P
[2] = tested on: U937 human leukemic cells; test: viability of U937 human leukemic cells, combination with TCN-P
[3] = tested on: HL60 human leukemic cells; test: viability of HL60 human leukemic cells, combination with TCN-P

Measured: synergy with TCN-P to inhibit viability

C#Cc1cccc(Nc2ncnc3cc(OC)c(OCCCCCCC(=O)NO)cc23)c1 [CUDC-101]
synergizes with TCN-P: all assays above

Cc1cnc(NC(=O)Nc2cc(Br)c(C)cc2OC[C@@H]2CNCCO2)cn1 [LY2603618, rabusertib]
synergizes with TCN-P: all assays above
